Columns and labels:
[1] = Human pharmacokinetics of circulating 9-cis-retinol in blood from completed clinical trials after oral 9-cis-retinyl acetate; format: in vivo
Procedure: FIG. 2 plots human pharmacokinetic (PK) data for the circulating levels of 9-cis-retinol in the blood from completed clinical trials where 9-cis-retinyl acetate was administered orally.
9-cis-retinyl acetate is the acetate ester of 9-cis-retinol. Acetate esters like 9-cis-retinyl acetate are generally short-lived because they are readily hydrolyzed either at physiological pH or by esterases in the blood and other parts of the body.
Thus, further discussion focuses on 9-cis-retinol.
Collated in FIG. 2 are human PK data that show a Cmax between 4 and 7 hours for 9-cis-retinol independent of initial dose administered. A low steady level of 9-cis-retinol is achieved in ˜24 hours. […] The circulating 9-cis-retinol is observed at similar levels from about 24 hours through at least 700 hours after a single dose.
(§1) Clearance from the blood is rapid above ˜8 nM, but quickly drops to zero or near zero below that level. Steady state levels (from ˜24 hrs post dose) are 4.57 nM (10 mg/m^2 dose, 83 samples), 8.32 nM (40 mg/m^2 dose, 149 samples), and 7.46 nM (5 to 60 mg/m^2, 629 samples).

[2] = Population PK model (2 compartment, concentration-dependent clearance) for 9-cis-retinol built on the observed clinical data; settings: human blood, FIG. 4
Source text: FIG. 3 schematically illustrates a 2 compartment PK model used to describe the observed clinical data.
From the observed PK data analyzed, a population PK model for levels of 9-cis-retinol was built. Based on the observed clinical data, a 2 compartment PK model was constructed (FIG. 3). This kinetic model for 9-cis-retinol includes a recirculation feature that maintains 9-cis-retinol levels for long periods of time. Two features of this model include apparent concentration-dependent clearance of 9-cis-retinol from the blood, and apparent zero or close to zero clearance at low concentrations. This accounts for long recirculating levels of 9-cis-retinol, seen in samples consistently at 100 hours, 300 hours and 700 hours post last dose administered.
as §1

Question: With CC1=C(/C=C/C(C)=C\C=C\C(C)=C\CO)C(C)(C)CCC1 [9-cis-retinol] as the compound, how does the “Steady state levels (from ~24 hrs post dose)” value (shortened to “Steady state levels”) ([1]; 10 mg/m^2 dose, 83 samples) read?
Answer: 4.57 nM

Question: And the “Steady state levels” value ([1]; 40 mg/m^2 dose, 149 samples)?
Answer: 8.32 nM

Question: And the “Steady state levels” value ([1]; 5 to 60 mg/m^2, 629 samples)?
Answer: 7.46 nM

Question: What about the “Time through which circulating 9-cis-retinol is observed at similar levels” value ([1]; human, in vivo) of the same compound?
Answer: at least 700 hours

Question: What about the “Cmax (time of) for 9-cis-retinol” value ([1]; human, in vivo, po) of the same compound?
Answer: 4 to 7 h

Question: What about the “Time at which a low steady level of 9-cis-retinol is achieved” value ([1]; human, in vivo, po) of the same compound?
Answer: about 24 hours

Question: What about the “Concentration above which clearance from the blood is rapid (drops to zero or near zero below)” value [2] of the same compound?
Answer: ~8 nM

Question: For CC(=O)OC/C=C(C)/C=C/C=C(C)\C=C\C1=C(C)CCCC1(C)C [9-cis-retinyl acetate, (2E,4E,6Z,8E)-3,7-dimethyl-9-(2,6,6-trimethylcyclohex-1-en-1-yl)nona-2,4,6,8-tetraen-1-yl acetate], which “Persistence of 9-cis-retinyl acetate in human blood samples following oral dosing” value ([1]; human, in vivo, po) is on record?
Answer: extremely short lived and rapidly hydrolyzed to 9-cis-retinol
